Results published in paper PMC2759276 (Bioorganic & medicinal chemistry, 2009).
Entries after “also recorded” stand apart in the source; their conditions may differ. Where two headings read alike, the source gives them in different places.

Experiments:
VIM-2 [1] = target: T1, VIM-2 (Escherichia coli, UniProt Q5U7L7); test: VIM-2 CCF2 kinetic assay; type: biochemical; conditions: VIM-2, CCF2 format; SD of 3 replicates
VIM-2 [2] = target: T1, VIM-2; type: biochemical
VIM-2 [3] = target: T1, VIM-2; type: biochemical; conditions: for effect of absence of zinc in the assay buffer on potency: with vs without 50 μM ZnSO4
IMP-1 = IMP-1 (Serratia marcescens, UniProt P52699); test: biochemical; type: biochemical; conditions: for inhibition at 56 µM: read-out: Max Inhibition @ Tested Concentration, IMP-1 Nitrocefin
TEM-1 = TEM-1 (Escherichia coli, UniProt P62593); test: TEM-1 nitrocefin assay; type: biochemical; conditions: for inhibition at 25 µM: read-out: Max Inhibition @ Tested Concentration, TEM-1 Nitrocefin; for inhibitory activity against TEM-1 (in words): highest concentration tested 25 μM
AmpC = AmpC (Enterobacter cloacae, UniProt P05364); test: AmpC nitrocefin assay; type: biochemical, E.cloacae; conditions: for inhibition at 25 µM: read-out: Max Inhibition @ Tested Concentration, AmpC Nitrocefin; for inhibitory activity against AmpC (in words): highest concentration tested 25 μM
[4] = test system: resistant E. coli (BL21/VIM-2); test: Imipenem MIC potentiation by a single dose of inhibitor; type: cell-based; conditions: for Imipenem MIC @ 50 μM of compound: BL21+VIM-2; for potentiation of imipenem efficacy (in words): resistant E. coli (BL21/VIM-2)
VIM-2 [5] = target: T1, VIM-2; test: VIM-2 FRET; type: biochemical; conditions: @ 36 μM
[6] = test system: non-resistant (BL21) E. coli; test: MIC assay, non-resistant strain; type: cell-based
[7] = test system: resistant (BL21/VIM-2) E. coli; type: cell-based
BL21/VIM2 E. coli = type: cell-based; conditions: checkerboard microdilution
VIM-2 [8] = target: T1, VIM-2; test: Rapid dilution experiment

Chain of TEM-1 (P62593 24-286 limits assumed): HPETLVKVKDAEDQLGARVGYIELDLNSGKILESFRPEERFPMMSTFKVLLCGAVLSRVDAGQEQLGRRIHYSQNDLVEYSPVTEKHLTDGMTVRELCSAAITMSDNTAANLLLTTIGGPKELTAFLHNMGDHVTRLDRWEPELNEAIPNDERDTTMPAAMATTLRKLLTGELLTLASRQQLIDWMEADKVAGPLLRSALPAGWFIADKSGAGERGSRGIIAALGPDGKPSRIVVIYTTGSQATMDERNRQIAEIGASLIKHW
Chain of IMP-1 (P52699 19-246 limits assumed): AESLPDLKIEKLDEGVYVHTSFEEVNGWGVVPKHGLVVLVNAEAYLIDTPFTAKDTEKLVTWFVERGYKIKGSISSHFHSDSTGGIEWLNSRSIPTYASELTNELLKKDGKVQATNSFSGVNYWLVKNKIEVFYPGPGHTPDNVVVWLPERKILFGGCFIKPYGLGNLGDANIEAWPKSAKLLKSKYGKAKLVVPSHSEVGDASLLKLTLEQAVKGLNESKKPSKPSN
Chain of AmpC (P05364 21-381): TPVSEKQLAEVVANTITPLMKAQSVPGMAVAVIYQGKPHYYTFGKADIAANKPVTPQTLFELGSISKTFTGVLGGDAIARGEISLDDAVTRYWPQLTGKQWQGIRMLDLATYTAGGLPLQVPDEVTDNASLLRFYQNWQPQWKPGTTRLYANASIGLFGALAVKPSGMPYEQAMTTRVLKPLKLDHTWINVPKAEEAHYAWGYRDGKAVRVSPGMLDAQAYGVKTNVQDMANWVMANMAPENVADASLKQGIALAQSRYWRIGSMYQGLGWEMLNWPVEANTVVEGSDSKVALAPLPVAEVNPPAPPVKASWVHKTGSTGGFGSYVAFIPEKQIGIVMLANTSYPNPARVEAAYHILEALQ

Structure (SMILES)	mechanism of inhibition (VIM-2 [2])	effect of absence of zinc in the assay buffer on potency (VIM-2 [3])	IC50 (IMP-1) [µM]	activity in the IMP-1 nitrocefin assay (in words) (IMP-1)	inhibition at 56 µM (IMP-1) [%]	IC50 (TEM-1) [µM]	inhibition at 25 µM (TEM-1) [%]	IC50 (AmpC) [µM]	inhibition at 25 µM (AmpC) [%]	Imipenem MIC @ 50 μM of compound [4] [µg/mL]	inhibitory activity against TEM-1 (in words) (TEM-1)	inhibitory activity against AmpC (in words) (AmpC)	potentiation of imipenem efficacy (in words) [4]	further results
O=C(CNC(=O)c1cc2cc(Cl)c(O)cc2oc1=O)N[C@@H]1C(=O)N2C(C(=O)O)=C(CSc3ccc4c(c3)C(=O)OC43c4ccc(O)cc4Oc4cc(O)ccc43)CS[C@H]12 [CCF2]														Km (VIM-2 [1]): 21 ± 7 µM
C#CCCOCc1nn[nH]c1CNS(=O)(=O)c1ccc(I)cc1 [Compound 1, 4-Iodo-N-((4-((but-3-ynyloxy)methyl)-1H-1,2,3-triazol-5-yl)methyl)benzenesulfonamide]	competitive inhibitors	not significantly affected by the absence of zinc; also recorded: independent of the concentration of zinc	> 56	inactive	0	> 25	0	> 25	0	1.9				
COCc1nn[nH]c1CNS(=O)(=O)c1ccc(I)cc1 [Compound 2, 4-Iodo-N-((4-(methoxymethyl)-1H-1,2,3-triazol-5-yl)methyl)benzenesulfonamide]	competitive inhibitors	not significantly affected by the absence of zinc; also recorded: independent of the concentration of zinc	> 56	inactive	0	> 25	0	> 25	0	1.9				
O=C1c2c(O)ccc(O)c2C(=O)c2c(NCCNCCO)ccc(NCCNCCO)c21 [Mitoxantrone, 1,4-Dihydroxy-5,8-bis([2-([2-hydroxyethyl]amino)ethyl]amino)-9,10-anthracenedione]		not significantly affected by the absence of zinc	> 56	did not exhibit any inhibitory activity	0	> 25	0	> 25	0	0.2	did not exhibit any inhibitory activity	did not exhibit any inhibitory activity	completely reverse the effects of VIM-2 on imipenem potency; also recorded: potentiate imipenem efficacy	activity in the IMP-1 nitrocefin assay (in words) (IMP-1; listed as mitoxantrone): inactive at the range of concentrations tested
O=C(O)c1cc[c]([Hg][Cl])cc1 [pCMB, 4-chloromercuribenzoic acid]	slowly reversible or irreversible inhibitor; also recorded: irreversible / slowly reversible	not significantly affected by the absence of zinc		modest potency; also recorded: demonstrated potency						0.2	no inhibitory activity	no inhibitory activity	completely reverse the effects of VIM-2 on imipenem potency; also recorded: potentiate imipenem efficacy	Max Inhibition @ Tested Concentration, VIM-2 (Nitrocefin) (VIM-2 [3]; @ 15 μM): NA ^(e) (80% @ 15 μM); Max Inhibition @ Tested Concentration, VIM-2 (CCF2) (VIM-2 [5]): NA (83% @ 36 μM); Max Inhibition @ Tested Concentration, IMP-1 Nitrocefin (IMP-1; @ 140 μM, 15 minutes of preincubation): NA (82% @ 140 μM); Max Inhibition @ Tested Concentration, TEM-1 Nitrocefin (TEM-1; @ 25 μM): 0%; IC50 (TEM-1; read-out: IC50 TEM-1 Nitrocefin): > 25 µM; Max Inhibition @ Tested Concentration, AmpC Nitrocefin (AmpC; @ 25 μM): 0%; IC50 (AmpC; read-out: IC50 AmpC Nitrocefin): > 25 µM; Compound MIC [6]: 17.9 µg/mL; Compound MIC [7]: 17.9 µg/mL; MIC alone (BL21/VIM2 E. coli): 17.9 µg/mL; inhibition of VIM-2 (VIM-2 [8]; 24 μM, incubated 30 minutes at room temperature): 90%; recovery of VIM-2 activity after dilution (VIM-2 [8]; after 15 minutes, 1:100 dilution from 24 μM): 16.5%
